Results reported in patent US20050197338A1, “Substituted pyrazole urea compounds for the treatment of inflammation” (priority 2003, published 2005).

Molecular target: T1, human IKK-2 (rhIKK-2 homodimer) (Homo sapiens, UniProt O14920)
T1 construct: FLAG (DYKDDDDKD) (C); made in house; host or cells: insect cells (baculovirus, pFastBac)
T1 sequence (O14920 1-756): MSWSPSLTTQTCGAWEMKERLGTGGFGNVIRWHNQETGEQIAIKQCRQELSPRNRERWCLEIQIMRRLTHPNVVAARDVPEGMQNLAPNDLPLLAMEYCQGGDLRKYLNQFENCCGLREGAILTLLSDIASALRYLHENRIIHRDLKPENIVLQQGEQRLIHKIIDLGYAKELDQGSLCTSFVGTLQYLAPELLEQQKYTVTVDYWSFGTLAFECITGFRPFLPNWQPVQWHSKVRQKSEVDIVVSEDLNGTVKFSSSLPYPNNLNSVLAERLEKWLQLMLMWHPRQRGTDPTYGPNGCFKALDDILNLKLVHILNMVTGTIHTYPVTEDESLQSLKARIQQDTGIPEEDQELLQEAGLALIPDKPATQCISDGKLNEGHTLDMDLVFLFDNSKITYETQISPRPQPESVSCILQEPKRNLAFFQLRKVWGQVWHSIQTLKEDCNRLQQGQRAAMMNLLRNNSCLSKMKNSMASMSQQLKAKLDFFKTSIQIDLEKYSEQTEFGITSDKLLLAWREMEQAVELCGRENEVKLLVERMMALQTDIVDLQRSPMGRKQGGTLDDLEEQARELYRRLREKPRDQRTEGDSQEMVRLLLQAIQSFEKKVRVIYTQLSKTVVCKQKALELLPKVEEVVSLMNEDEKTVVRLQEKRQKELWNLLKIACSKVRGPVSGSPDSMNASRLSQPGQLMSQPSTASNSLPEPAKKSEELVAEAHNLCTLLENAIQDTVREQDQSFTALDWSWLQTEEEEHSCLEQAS
Assay: IKK-2 Resin Enzyme Assay (Human IKK-2 Enzyme Assay)
Assay type: biochemical
Conditions: human IKK-2, resin enzyme assay; read-out: IC50 (μM) hIKK-2
Procedure, shortened: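 C-terminally FLAG-tagged human IKK-2 homodimer, baculovirus-expressed in insect cells and anti-FLAG purified. Reaction mix: 5 μM biotinylated IκBα peptide (Ser32/Ser36 region), 1 μM ATP with [γ-33P]ATP, 2 mM MgCl2, 2 mM MnCl2, 10 mM NaF, 1 mM DTT, 25 mM HEPES pH 7.6. Incubated 30 min at 25 °C; IC50 derived.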

IC50 [µM] | Compound
3.3 | NC(=O)Nc1cn(-c2cc(Cl)ccc2F)nc1C(N)=O [Example 246, 1-(5-chloro-2-fluoro-phenyl)-4-ureido-1H-pyrazole-3-carboxylic acid amide]
0.386 | NC(=O)Nc1cn(-c2ccc(-c3ccc(C(=O)O)c(F)c3)cc2F)nc1C(N)=O [Example 248, 4′-{3-(aminocarbonyl)-4-[(aminocarbonyl)amino]-1H-pyrazol-1-yl}-3,3′-difluoro-1,1′-biphenyl-4-carboxylic acid]
0.892 | NC(=O)Nc1cn(-c2ccc(-c3ccccc3O)cc2F)nc1C(N)=O [Example 249, 4-[(aminocarbonyl)amino]-1-(3-fluoro-2′-hydroxy-1,1′-biphenyl-4-yl)-1H-pyrazole-3-carboxamide]
0.279 | N#CCOc1ccccc1-c1ccc(-n2cc(NC(N)=O)c(C(N)=O)n2)c(F)c1 [Example 250, 4-[(aminocarbonyl)amino]-1-[2′-(cyanomethoxy)-3-fluoro-1,1′-biphenyl-4-yl]-1H-pyrazole-3-carboxamide]
0.662 | NC(=O)Nc1cn(-c2ccc(I)cc2Cl)nc1C(N)=O [Example 251, 4-[(aminocarbonyl)amino]-1-(2-chloro-4-iodophenyl)-1H-pyrazole-3-carboxamide]
0.492 | NC(=O)COc1ccc(F)cc1-c1ccc(-n2cc(NC(N)=O)c(C(N)=O)n2)cc1 [Example 252, 4-[(aminocarbonyl)amino]-1-[2′-(2-amino-2-oxoethoxy)-5′-fluoro-1,1′-biphenyl-4-yl]-1H-pyrazole-3-carboxamide]
1.01 | CC(=O)COc1cccc(-c2ccc(-n3cc(NC(N)=O)c(C(N)=O)n3)cc2)c1 [Example 253, 4-[(aminocarbonyl)amino]-1-[3′-(2-oxopropoxy)-1,1′-biphenyl-4-yl]-1H-pyrazole-3-carboxamide]
0.352 | NC(=O)Nc1cn(-c2ccc(-c3cccc(OCc4ncco4)c3)cc2)nc1C(N)=O [Example 254, 4-[(aminocarbonyl)amino]-1-[3′-(1,3-oxazol-2-ylmethoxy)-1,1′-biphenyl-4-yl]-1H-pyrazole-3-carboxamide]
0.762 | NC(=O)Nc1cn(-c2ccc(-c3cc(F)ccc3OCc3ncco3)cc2)nc1C(N)=O [Example 255, 4-[(aminocarbonyl)amino]-1-[5′-fluoro-2′-(1,3-oxazol-2-ylmethoxy)-1,1′-biphenyl-4-yl]-1H-pyrazole-3-carboxamide]
1.07 | CNC(=O)COc1ccc(F)cc1-c1ccc(-n2cc(NC(N)=O)c(C(N)=O)n2)cc1 [Example 256, 4-[(aminocarbonyl)amino]-1-{5′-fluoro-2′-[2-(methylamino)-2-oxoethoxy]-1,1′-biphenyl-4-yl}-1H-pyrazole-3-carboxamide]
1.35 | CCNC(=O)COc1ccc(F)cc1-c1ccc(-n2cc(NC(N)=O)c(C(N)=O)n2)cc1 [Example 257, 4-[(aminocarbonyl)amino]-1-{5′-fluoro-2′-[2-(ethylamino)-2-oxoethoxy]-1,1′-biphenyl-4-yl}-1H-pyrazole-3-carboxamide]
1.02 | NC(=O)Nc1cn(-c2ccc(-c3cccc(OCC(=O)O)c3)cc2)nc1C(N)=O [Example 258, [(4′-{3-(aminocarbonyl)-4-[(aminocarbonyl)amino]-1H-pyrazol-1-yl}-1,1′-biphenyl-3-yl)oxy]acetic acid]
4.01 | NC(=O)Nc1cn(-c2ccc(-c3cc(F)ccc3OCC(=O)O)cc2)nc1C(N)=O [Example 259, [(4′-{3-(aminocarbonyl)-4-[(aminocarbonyl)amino]-1H-pyrazol-1-yl}-5-fluoro-1,1′-biphenyl-2-yl)oxy]acetic acid]
0.512 | CC1(C)OB(c2ccc(-n3cc(NC(N)=O)c(C(N)=O)n3)cc2)OC1(C)C [Example 260, 4-[(aminocarbonyl)amino]-1-[4-(4,4,5,5-tetramethyl-1,3,2-dioxaborolan-2-yl)phenyl]-1H-pyrazole-3-carboxamide]
1.18 | NC(=O)Nc1cn(-c2ccc(-c3ccccc3O)c(F)c2)nc1C(N)=O [Example 261, 4-[(aminocarbonyl)amino]-1-(2-fluoro-2′-hydroxy-1,1′-biphenyl-4-yl)-1H-pyrazole-3-carboxamide]
0.842 | NC(=O)Nc1cn(-c2ccc(-c3ccc(F)cc3O)c(F)c2)nc1C(N)=O [Example 262, 4-[(aminocarbonyl)amino]-1-(2,4′-difluoro-2′-hydroxy-1,1′-biphenyl-4-yl)-1H-pyrazole-3-carboxamide]
3.7 | NC(=O)Nc1cn(-c2ccc(Sc3ccccc3F)c(Cl)c2)nc1C(N)=O [Example 270, 4-[(aminocarbonyl)amino]-1-{3-chloro-4-[(2-fluorophenyl)thio]phenyl}-1H-pyrazole-3-carboxamide]

IC50 [µM] | Compound
> 20 | CCOc1cc(-n2cc(NC(N)=O)c(C(N)=O)n2)ccc1-c1ccc(O)cc1 [Example 274, 4-[(aminocarbonyl)amino]-1-(2-ethoxy-4′-hydroxy-1,1′-biphenyl-4-yl)-1H-pyrazole-3-carboxamide]
7.59 | CCc1cc(Br)ccc1N/N=C(\C#N)C(N)=O [Example 277, (2E)-2-[(4-bromo-2-ethylphenyl)hydrazono]-2-cyanoacetamide]
10.6 | CCc1cc(Br)ccc1-n1cc(NC(N)=O)c(C(N)=O)n1 [Example 281, 4-[(aminocarbonyl)amino]-1-(4-bromo-2-ethylphenyl)-1H-pyrazole-3-carboxamide]
12.6 | CCc1cc(-c2cccc(O)c2)ccc1-n1cc(NC(N)=O)c(C(N)=O)n1 [Example 282, 4-[(aminocarbonyl)amino]-1-(3-ethyl-3′-hydroxy-1,1′-biphenyl-4-yl)-1H-pyrazole-3-carboxamide]
0.431 | NC(=O)Nc1cn(-c2ccc([S+]([O-])C3CCCC3)cc2)nc1C(N)=O (stereo not shown) [Example 283, 1-(3-carbamoyl-1-(4-(cyclopentylsulfinyl)phenyl)-1H-pyrazol-4-yl)urea]
0.986 | NC(=O)Nc1cn(-c2ccc([S+]([O-])c3ccccn3)cc2)nc1C(N)=O (stereo not shown) [Example 284, 1-(3-carbamoyl-1-(4-(pyridin-2-ylsulfinyl)phenyl)-1H-pyrazol-4-yl)urea]
0.578 | NC(=O)Nc1cn(-c2ccc([S+]([O-])c3ccccc3O)cc2)nc1C(N)=O (stereo not shown) [Example 285, 1-(1-(4-(2-hydroxyphenylsulfinyl)phenyl)-3-carbamoyl-1H-pyrazol-4-yl)urea]
0.663 | NC(=O)Nc1cn(-c2ccc(S(=O)(=O)c3ccccn3)cc2)nc1C(N)=O [Example 286, 1-(3-carbamoyl-1-(4-(pyridin-2-ylsulfonyl)phenyl)-1H-pyrazol-4-yl)urea]
0.187 | NC(=O)Nc1cn(-c2ccc(S(=O)(=O)C3CCCC3)cc2)nc1C(N)=O [Example 287, 1-(3-carbamoyl-1-(4-(cyclopentylsulfonyl)phenyl)-1H-pyrazol-4-yl)urea]
0.252 | NC(=O)Nc1cn(-c2ccc(S(=O)(=O)c3ccccc3O)cc2)nc1C(N)=O [Example 288, 1-(1-(4-(2-hydroxyphenylsulfonyl)phenyl)-3-carbamoyl-1H-pyrazol-4-yl)urea]
10.6 | NC(=O)Nc1cn(-c2ccc(Sc3cccc(Cl)c3)cc2)nc1C(N)=O [Example 289, 1-(1-(4-(3-chlorophenylthio)phenyl)-3-carbamoyl-1H-pyrazol-4-yl)urea]
4.56 | NC(=O)Nc1cn(-c2ccc(Sc3ccc(Cl)cc3)cc2)nc1C(N)=O [Example 290, 1-(1-(4-(4-chlorophenylthio)phenyl)-3-carbamoyl-1H-pyrazol-4-yl)urea]
6.23 | CC(C)CCSc1ccc(-n2cc(NC(N)=O)c(C(N)=O)n2)cc1 [Example 291, 1-(3-carbamoyl-1-(4-(isopentylthio)phenyl)-1H-pyrazol-4-yl)urea]
0.656 | Cc1cc(-n2cc(NC(N)=O)c(C(N)=O)n2)ccc1-c1ccc(F)cc1OCC(N)=O [Example 296, 1-(2′-carbamoylmethoxy-4′-fluoro-2-methyl-biphenyl-4-yl)-4-ureido-1H-pyrazole-3-carboxylic acid amide]
1.94 | Cc1cc(-n2cc(NC(N)=O)c(C(N)=O)n2)ccc1Sc1ccc(F)cc1 [Example 297, 1-[4-(4-fluoro-phenylsulfanyl)-3-methyl-phenyl]-4-ureido-1H-pyrazole-3-carboxylic acid amide]
0.724 | Cc1cc(-n2cc(NC(N)=O)c(C(N)=O)n2)ccc1S(=O)(=O)c1ccc(F)cc1 [Example 298, 1-[4-(4-fluoro-benzenesulfonyl)-3-methyl-phenyl]-4-ureido-1H-pyrazole-3-carboxylic acid amide]
0.595 | COc1ccc(CNC(=O)c2nn(-c3cccc(O)c3)cc2NC(N)=O)cc1 [Example 299, 1-(3-hydroxy-phenyl)-4-ureido-1H-pyrazole-3-carboxylic acid 4-methoxy-benzylamide]
